The text below walks through data of ChEMBL document CHEMBL3414469, “Targeting DNA methylation with small molecules: what's next?” (J Med Chem, 2015).

One data set concerns the target DNMT3A2/3L complex (Homo sapiens, UniProt Q9Y6K1). In words: Inhibition of His6-tagged human recombinant DNMT3A/DNMT3L expressed in insect Sf9 cells assessed as reduction in DNA methyltransferase activity using 5'-biotinylated 45-bp unmethylated or hemimethylated oligonucleotide substrates and [3H]-AdoMet by liquid scintillation counting method.
Data set [1] can be described thus: Half life in patient with myelodysplastic syndrome dosed via infusion. Type of data set: ADME, organism-based. As to conditions: human, in vivo, iv.
Data set [2] has as its target DNA (cytosine-5)-methyltransferase 3B (Homo sapiens, UniProt Q9UBC3). Description: Inhibition of His6-tagged human recombinant DNMT3b expressed in insect Sf9 cells assessed as reduction in DNA methyltransferase activity using 5'-biotinylated 45-bp unmethylated or hemimethylated oligonucleotide substrates and [3H]-AdoMet by liquid scintillation counting method.
Data set [3] has as its target DNA (cytosine-5)-methyltransferase 1 (Homo sapiens, UniProt P26358). In words: Inhibition of His6-tagged human recombinant DNMT1 expressed in insect Sf9 cells assessed as reduction in DNA methyltransferase activity using 5'-biotinylated 45-bp unmethylated or hemimethylated oligonucleotide substrates and [3H]-AdoMet by liquid scintillation counting method.
Data set [4] in a line: Half life in sc dosed patient with myelodysplastic syndrome. The conditions noted are these: human, in vivo.
The target in data set [5] is DNA (cytosine-5)-methyltransferase 3A (Homo sapiens, UniProt Q9Y6K1). In words: Inhibition of His6-tagged human recombinant DNMT3a expressed in insect Sf9 cells assessed as reduction in DNA methyltransferase activity using 5'-biotinylated 45-bp unmethylated or hemimethylated oligonucleotide substrates and [3H]-AdoMet by liquid scintillation counting method.

Some results are limits rather than exact numbers.

Sequence of DNMT3A2/3L complex (Q9Y6K1 whole entry, looked up, the tested form may be a part, one chain of several): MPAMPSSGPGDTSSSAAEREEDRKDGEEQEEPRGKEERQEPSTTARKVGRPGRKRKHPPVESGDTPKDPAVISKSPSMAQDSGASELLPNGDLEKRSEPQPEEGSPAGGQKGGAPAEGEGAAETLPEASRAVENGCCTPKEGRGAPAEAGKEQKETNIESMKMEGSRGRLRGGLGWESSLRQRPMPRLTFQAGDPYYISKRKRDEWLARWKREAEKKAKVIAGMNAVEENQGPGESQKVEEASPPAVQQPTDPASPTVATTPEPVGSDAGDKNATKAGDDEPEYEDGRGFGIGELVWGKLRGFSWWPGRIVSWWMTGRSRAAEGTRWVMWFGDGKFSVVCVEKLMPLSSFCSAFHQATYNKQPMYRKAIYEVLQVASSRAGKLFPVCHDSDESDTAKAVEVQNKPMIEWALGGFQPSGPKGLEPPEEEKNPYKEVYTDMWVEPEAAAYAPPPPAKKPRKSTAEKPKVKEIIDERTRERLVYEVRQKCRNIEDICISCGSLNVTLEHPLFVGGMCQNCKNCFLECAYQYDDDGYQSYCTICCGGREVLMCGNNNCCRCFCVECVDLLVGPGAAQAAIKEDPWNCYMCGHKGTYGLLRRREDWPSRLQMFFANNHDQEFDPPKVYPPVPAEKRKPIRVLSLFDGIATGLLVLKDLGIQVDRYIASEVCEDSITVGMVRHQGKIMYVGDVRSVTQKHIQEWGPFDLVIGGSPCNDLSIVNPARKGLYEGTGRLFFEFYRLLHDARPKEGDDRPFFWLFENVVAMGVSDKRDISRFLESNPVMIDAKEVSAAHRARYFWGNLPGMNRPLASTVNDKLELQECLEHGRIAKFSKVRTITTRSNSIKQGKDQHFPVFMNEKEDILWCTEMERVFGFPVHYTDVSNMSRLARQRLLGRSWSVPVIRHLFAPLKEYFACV
Sequence of DNA (cytosine-5)-methyltransferase 1 (P26358 whole entry): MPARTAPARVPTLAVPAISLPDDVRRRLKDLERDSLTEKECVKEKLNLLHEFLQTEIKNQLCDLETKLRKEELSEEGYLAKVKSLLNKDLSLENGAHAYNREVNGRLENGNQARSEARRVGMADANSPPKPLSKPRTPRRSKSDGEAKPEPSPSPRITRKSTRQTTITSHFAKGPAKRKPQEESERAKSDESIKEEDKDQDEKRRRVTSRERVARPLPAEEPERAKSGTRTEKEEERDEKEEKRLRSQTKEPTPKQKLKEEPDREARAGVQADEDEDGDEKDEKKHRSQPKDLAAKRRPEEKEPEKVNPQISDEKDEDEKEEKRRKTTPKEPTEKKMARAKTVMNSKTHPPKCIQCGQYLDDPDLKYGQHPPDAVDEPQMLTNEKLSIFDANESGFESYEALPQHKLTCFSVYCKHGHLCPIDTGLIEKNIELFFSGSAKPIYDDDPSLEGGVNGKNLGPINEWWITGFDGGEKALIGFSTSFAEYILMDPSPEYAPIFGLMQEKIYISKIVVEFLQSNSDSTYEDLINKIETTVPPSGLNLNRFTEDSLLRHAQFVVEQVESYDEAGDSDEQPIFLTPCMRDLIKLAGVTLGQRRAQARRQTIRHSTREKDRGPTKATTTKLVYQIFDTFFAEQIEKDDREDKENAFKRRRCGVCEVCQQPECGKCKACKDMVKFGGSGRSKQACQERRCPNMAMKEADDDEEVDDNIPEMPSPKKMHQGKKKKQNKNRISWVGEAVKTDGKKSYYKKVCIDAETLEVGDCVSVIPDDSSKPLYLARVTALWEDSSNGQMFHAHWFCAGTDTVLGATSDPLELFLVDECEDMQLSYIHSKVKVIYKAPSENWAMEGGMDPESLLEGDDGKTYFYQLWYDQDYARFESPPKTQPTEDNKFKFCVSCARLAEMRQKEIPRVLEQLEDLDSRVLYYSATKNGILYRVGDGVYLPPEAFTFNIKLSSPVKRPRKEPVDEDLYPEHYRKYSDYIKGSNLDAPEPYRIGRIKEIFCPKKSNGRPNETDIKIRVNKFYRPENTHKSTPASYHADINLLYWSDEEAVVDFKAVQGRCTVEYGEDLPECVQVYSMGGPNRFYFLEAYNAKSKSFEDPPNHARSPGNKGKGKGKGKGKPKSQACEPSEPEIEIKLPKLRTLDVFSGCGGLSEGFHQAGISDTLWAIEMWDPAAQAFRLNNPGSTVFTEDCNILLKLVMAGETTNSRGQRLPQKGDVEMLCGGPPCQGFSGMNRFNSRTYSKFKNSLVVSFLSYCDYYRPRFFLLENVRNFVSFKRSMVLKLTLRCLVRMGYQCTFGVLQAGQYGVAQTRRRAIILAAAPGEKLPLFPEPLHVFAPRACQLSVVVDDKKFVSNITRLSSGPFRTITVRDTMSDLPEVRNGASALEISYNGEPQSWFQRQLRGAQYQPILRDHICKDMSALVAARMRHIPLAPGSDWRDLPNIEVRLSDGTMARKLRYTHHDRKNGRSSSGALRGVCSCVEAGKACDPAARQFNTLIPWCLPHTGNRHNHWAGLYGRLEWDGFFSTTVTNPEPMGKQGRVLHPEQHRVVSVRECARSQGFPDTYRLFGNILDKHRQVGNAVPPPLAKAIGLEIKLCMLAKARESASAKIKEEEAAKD
Sequence of DNA (cytosine-5)-methyltransferase 3A (Q9Y6K1 whole entry, looked up): as the sequence (Q9Y6K1 whole entry, looked up, the tested form may be a part, one chain of several) above

With `O=C(O)[C@H](Cc1c[nH]c2ccccc12)N1C(=O)c2ccccc2C1=O`, the IC50 at DNMT3A2/3L complex was determined as 315 µM. As to `Nc1ncn([C@H]2C[C@H](O)[C@@H](CO)O2)c(=O)n1` [DECITABINE], in data set [1], the half-life turned out to be 10 min. As for `C[C@@H]1O[C@@H](CC(=O)O)CC2=C1C(=O)c1c(O)cccc1C2=O` [NANAFROCIN], the concentration for half-maximal inhibition (IC50) in data set [2] was 0.5 µM. `O=C1C(Cl)=C(Cl)C(=O)c2ccccc21` [Dichlon]: the values for the IC50 (in data set [3]; at DNMT3A2/3L complex) were 1.6 µM and 0.5 µM, respectively.

For `Cc1cc(Nc2ccc(NC(=O)c3ccc(Nc4ccnc5ccccc45)cc3)cc2)nc(N)n1`, the IC50 in data set [2] stood at 7.5 µM. As for `CCN(CC)CCNC(=O)c1ccc(NCCCCCCCCCCCCN2C(=O)c3ccccc3C2=O)cc1`, the figures for the IC50 (in data set [3]; at DNMT3A2/3L complex) were 4 µM and 21 µM, respectively.

For the molecule `Nc1ncn([C@@H]2O[C@H](CO)[C@@H](O)[C@H]2O)c(=O)n1` [AZACITIDINE], the half-life in data set [4] came to 41 min. For the molecule `O=C(O[C@@H]1Cc2c(O)cc(O)cc2O[C@@H]1c1cc(O)c(O)c(O)c1)c1cc(O)c(O)c(O)c1` [EPIGALOCATECHIN GALLATE], in data set [3], the IC50 was 0.5 µM. For `O=[N+]([O-])c1cc(S(=O)(=O)Nc2ccc(O)c3ccccc23)ccc1Cl`, the figures for the half-inhibitory concentration (IC50) in data set [3] and in data set [5] were 1.2 µM and 38 µM, respectively. In the case of `O=C(O)[C@H](Cc1c[nH]c2ccccc12)N1C(=O)C=CC1=O`, the IC50 in data set [3] worked out at 20 µM. Turning to `O=c1c(-c2ccc(O)cc2)coc2cc(O)cc(O)c12` [GENISTEIN], the values for the IC50 (in data set [3]; on DNMT3A2/3L complex) were 30 µM and greater than 100 µM, respectively. For the molecule `CCN(CC)CCNC(=O)c1ccc(N)cc1` [PROCAINAMIDE], the values for the IC50 (in data set [3]; at DNMT3A2/3L complex) were greater than 500 µM and greater than 300 µM, respectively.

As to `O=[N+]([O-])c1ccc(C2=NC[C@H](CN3CCCC3)O2)cc1`, the IC50 in data set [3] came to 150 µM.
